Patent publication US6750244B2, “Compounds active at a novel site on receptor-operated calcium channels useful for treatment of neurological disorders and diseases” (NPS Pharmaceuticals, Inc., priority 1993, dated 2004)
Where two headings read alike, the source gives them in different places. Marks after values point to notes of the source that are not given here.

Experiments:
NMDA receptor [1] = experiment: Inhibition of NMDA/glycine-induced increases in intracellular calcium in cultured rat cerebellar granule cells (RCGC); type: cell-based; conditions: NMDA/glycine-induced increases in intracellular calcium, cultured rat cerebellar granule cells; read-out: IC50 (μM) vs. NMDA
induction of LTP = test system: induction of LTP; design: species or system rat; conditions: for induction of LTP (p<0.05): slices superfused 30-60 min
[2] = test system: NMDA receptor-ionophore complex (site labeled by [3H]MK-801); experiment: Inhibition of [3H]MK-801 binding in rat cortical/hippocampal washed membrane preparations; conditions: for IC50: read-out: IC50 (μM) vs. [3H]MK-801, rat cortical/hippocampal washed membranes
NMDA receptor [3] = conditions: rat hippocampal slices
Method: Glutamate-mediated transmission at synapses of Schaffer collateral fibers and CA1 pyramidal cells was measured in slices of rat brain containing the hippocampus. This assay measures electrophysiologically the postsynaptic depolarization caused by the presynaptic release of glutamate, and can readily distinguish synaptic transmission mediated by NMDA or AMPA receptors.

sound-induced seizures = experiment: Sound-induced seizures in Frings mice (reflex epilepsy); type: in vivo; conditions: for ED50: Mus musculus, ip, Frings mice
motor performance = experiment: Acute motor impairment (rotorod) in mice; conditions: Frings mice, i.c.v. injection
Method: (§1) In this assay, Frings and CF1 mice were injected with test compound and placed on a knurled rod which rotated at a speed of 6 rpm. The ability of the mice to maintain equilibrium for long periods of time was determined; those mice that were unable to maintain equilibrium on the rotorod for 1 min in each of 3 trials were considered impaired.

[4] = test system: mean arterial blood pressure; conditions: for no significant cardiovascular activity in anesthetized rats at doses up to: i.v.
L-type calcium channel = test system: T1, L-type calcium channel; experiment: Inhibition of KCl depolarization-induced increases in intracellular calcium in cultured rat cerebellar granule cells; type: cell-based; conditions: cultured rat cerebellar granule cells; read-out: L-type calcium channel: estimated IC50, KCl depolarization-induced increases in intracellular calcium
T1 construct: L-type calcium channel: estimated IC50, KCl depolarization-induced increases in intracellular calcium; other: cultured
From the text: The ability of arylalkylamines to inhibit dihydropyridine-sensitive Ca^2+ channels was examined in cerebellar granule cells and a rat aortic smooth muscle cell line, A7r5 cells.

[5] = test system: central muscarinic cholinergic receptor; type: binding, rat
dopamine uptake site = molecular target: T2, dopamine uptake site (Cavia porcellus, UniProt H0WCX4); experiment: Dopamine uptake binding assay: [3H]WIN-35,428 binding to guinea pig striatal membranes
T2 construct: from tissue; host or cells: guinea pig striatal membranes (per the assay title)
T2 sequence (H0WCX4 1-619): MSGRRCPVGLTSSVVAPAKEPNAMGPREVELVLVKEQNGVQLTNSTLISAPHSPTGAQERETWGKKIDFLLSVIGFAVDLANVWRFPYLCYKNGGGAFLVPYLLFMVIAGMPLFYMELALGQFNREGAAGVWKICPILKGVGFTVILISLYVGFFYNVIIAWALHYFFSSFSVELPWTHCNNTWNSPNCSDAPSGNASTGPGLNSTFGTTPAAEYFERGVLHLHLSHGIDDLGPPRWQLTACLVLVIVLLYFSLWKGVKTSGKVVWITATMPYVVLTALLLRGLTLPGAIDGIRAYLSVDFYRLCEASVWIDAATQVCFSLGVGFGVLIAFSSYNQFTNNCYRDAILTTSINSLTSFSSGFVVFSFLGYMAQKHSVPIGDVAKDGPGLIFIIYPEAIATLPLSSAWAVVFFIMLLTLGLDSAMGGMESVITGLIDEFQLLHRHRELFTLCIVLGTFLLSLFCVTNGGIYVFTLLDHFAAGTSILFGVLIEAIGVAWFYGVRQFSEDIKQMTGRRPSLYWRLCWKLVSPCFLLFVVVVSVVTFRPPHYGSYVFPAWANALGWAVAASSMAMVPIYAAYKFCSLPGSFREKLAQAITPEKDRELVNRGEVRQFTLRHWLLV

[6] = molecular target: T3, norepinephrine uptake site (Rattus norvegicus, UniProt Q63380); experiment: Norepinephrine uptake binding assay: [3H]desipramine binding to rat cortical membranes
T3 construct: from tissue; host or cells: rat cortical membranes (per the assay title)
T3 sequence (Q63380 1-617): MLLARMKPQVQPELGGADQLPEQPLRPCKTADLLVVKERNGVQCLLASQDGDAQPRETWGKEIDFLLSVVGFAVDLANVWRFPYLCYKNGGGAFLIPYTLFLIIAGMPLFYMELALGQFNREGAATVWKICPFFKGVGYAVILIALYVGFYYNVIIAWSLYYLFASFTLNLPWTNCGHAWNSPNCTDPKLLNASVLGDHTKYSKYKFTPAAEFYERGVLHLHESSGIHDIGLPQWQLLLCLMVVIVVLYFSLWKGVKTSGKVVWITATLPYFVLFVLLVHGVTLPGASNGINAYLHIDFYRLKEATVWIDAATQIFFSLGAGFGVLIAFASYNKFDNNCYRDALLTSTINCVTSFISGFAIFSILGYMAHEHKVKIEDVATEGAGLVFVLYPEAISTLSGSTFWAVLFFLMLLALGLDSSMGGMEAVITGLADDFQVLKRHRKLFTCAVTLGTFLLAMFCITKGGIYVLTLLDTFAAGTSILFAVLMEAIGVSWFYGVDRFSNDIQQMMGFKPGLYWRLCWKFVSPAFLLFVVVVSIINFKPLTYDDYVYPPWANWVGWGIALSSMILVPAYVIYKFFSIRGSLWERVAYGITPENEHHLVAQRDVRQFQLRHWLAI

serotonin uptake site = molecular target: T4, serotonin uptake site (Rattus norvegicus, UniProt P31652); experiment: Serotonin uptake binding assay: [3H]citalopram binding to rat forebrain membranes
T4 construct: from tissue; host or cells: rat forebrain membranes (per the assay title)
T4 sequence (P31652 whole entry): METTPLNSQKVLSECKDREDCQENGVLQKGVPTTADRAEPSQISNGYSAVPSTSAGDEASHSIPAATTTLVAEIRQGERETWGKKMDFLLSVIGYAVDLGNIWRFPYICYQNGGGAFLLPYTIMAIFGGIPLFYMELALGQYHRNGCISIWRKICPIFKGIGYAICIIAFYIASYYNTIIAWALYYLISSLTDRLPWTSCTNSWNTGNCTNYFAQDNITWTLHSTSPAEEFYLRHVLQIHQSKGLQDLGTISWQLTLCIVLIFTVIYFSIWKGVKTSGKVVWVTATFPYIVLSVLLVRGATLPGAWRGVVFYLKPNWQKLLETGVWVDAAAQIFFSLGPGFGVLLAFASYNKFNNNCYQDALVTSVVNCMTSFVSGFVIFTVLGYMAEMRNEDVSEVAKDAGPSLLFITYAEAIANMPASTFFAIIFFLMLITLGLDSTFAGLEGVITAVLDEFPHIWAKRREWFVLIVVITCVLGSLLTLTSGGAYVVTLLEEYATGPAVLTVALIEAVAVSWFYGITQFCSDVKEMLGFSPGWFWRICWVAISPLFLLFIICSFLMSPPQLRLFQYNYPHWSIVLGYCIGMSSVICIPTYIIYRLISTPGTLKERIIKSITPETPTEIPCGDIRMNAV

in vivo = conditions: mouse, in vivo, ip
Method: as §1

focal ischemic stroke = experiment: Rat model of focal ischemic stroke (vessel occlusion); type: in vivo, rats; conditions: i.p. 2 mg/kg 30 min prior to vessel occlusion and 2 mg/kg 3 hr post-occlusion
seizure threshold = experiment: i.v. Metrazol test (seizure threshold) in mice; type: in vivo
[7] = test system: maximal electroshock-induced seizures; experiment: Maximal electroshock-induced seizures in mice; type: in vivo; conditions: Mus musculus, ip; mice

Structure (SMILES)	IC50 (NMDA receptor [1])	induction of LTP (p<0.05) (induction of LTP)	IC50 [2]	IC50 (L-type calcium channel)	Central muscarinic cholinergic receptor: percent block of [3H]QNB binding ([5]; at 0.1 μM)	Central muscarinic cholinergic receptor: percent block of [3H]QNB binding ([5]; at 10 μM)	Monoamine uptake binding assays: dopamine uptake binding assay, percent block (dopamine uptake site; at 0.1 μM)	Monoamine uptake binding assays: dopamine uptake binding assay, percent block (dopamine uptake site; at 10 μM)	Monoamine uptake binding assays: norepinephrine uptake binding assay, percent block ([6]; at 0.1 μM)	Monoamine uptake binding assays: norepinephrine uptake binding assay, percent block ([6]; at 10 μM)	Monoamine uptake binding assays: serotonin uptake binding assay, percent block (serotonin uptake site; at 0.1 μM)	Monoamine uptake binding assays: serotonin uptake binding assay, percent block (serotonin uptake site; at 10 μM)	ED50 (sound-induced seizures)	TD50 (in vivo; Frings)	neuroprotectant activity in a rat model of focal ischemic stroke (focal ischemic stroke)	also measured
NC(CCCP(=O)(O)O)C(=O)O (centres unmarked) [AP5, reference compound]	15 µM	significantly blocked	–	–	–	–	–	–	–	–	–	–	–	–	–	–
NC(CCCCCP(=O)(O)O)C(=O)O (centres unmarked) [AP7, reference compound]	–	significantly blocked	–	–	–	–	–	–	–	–	–	–	–	–	–	–
NCCCNCCCNCCCNC(=O)Cc1c[nH]c2ccc(F)cc12 [Compound 9]	1.2 µM	–	> 100 µM	–	–	–	–	–	–	–	–	–	–	–	–	% inhibition of [3H]MK-801 binding at the stated concentration (IC50 study incomplete) ([2]; at 100 μM): (10% at 100 μM)^d; Suppression of NMDA Receptor-Mediated Synaptic Transmission (concentration which suppresses) (NMDA receptor [3]): 10 to 100 µM; LTP Assay (block of the induction of LTP) (induction of LTP; at 300 μM): no block; IC50, prevention of sound-induced seizures (sound-induced seizures; intracerebroventricular (i.c.v.) injection): 4.77 µg; TD50, acute motor impairment (motor performance): 14.8 µg; Drop in Mean Arterial Blood Pressure ([4]; 4.5 μmoles/kg i.v., rats): 75 mm Hg at; Drop in Mean Arterial Blood Pressure: duration ([4]; 4.5 μmoles/kg i.v., rats): i.v., 90 min; duration of the hypotensive effect ([4]; systemic administration in rats): approximately 30 min
CC(CN)C(c1cccc(Cl)c1)c1cccc(Cl)c1 (centres unmarked) [Compound 46]	0.013 µM	–	5.2 µM	676 nM	33% at.	0.189% at	40% at	0.1^f97% at	10^f7% at	0.1^g64% at	10^g10% at	0.1^h75% at	25 mg/kg	18 to 21 mg/kg	no significant neuroprotectant activity	–
Cc1ccc(F)cc1C(CCN)c1cc(F)ccc1C [Compound 58, 3,3-bis(3-fluoro-6-methylphenyl)-1-propylamine]	0.028 µM	–	0.203 µM	2600 nM	1% at	0.148% at	0% at	0.1^f45% at	10^f1% at	0.1^g67% at	10^g27% at	0.1^h95% at	0.9 mg/kg	14.5 mg/kg	no significant neuroprotectant activity	no significant cardiovascular activity in anesthetized rats at doses up to [4]: up to 2 mg/kg
CCNCCC(c1cccc(F)c1)c1cccc(F)c1 [Compound 59, N-ethyl-3,3-bis(3-fluorophenyl)-1-propylamine]	0.272 µM	–	0.453 µM	–	9% at	0.187% at	2% at	0.1^f78% at	10^f7% at	0.1^g51% at	10^g14% at	0.1^h86% at	2.7 mg/kg	7.8 mg/kg	no significant neuroprotectant activity	seizure threshold, i.v. Metrazol test (seizure threshold; 11.7 mg/kg i.p.): a reduction in seizure threshold; no significant cardiovascular activity in anesthetized rats at doses up to [4]: up to 10 mg/kg
N[C@H]1CCCC1C(c1cccc(F)c1)c1cccc(F)c1 (some centres unmarked) [Compound 63]	0.093 µM	–	0.245 µM	1900 nM	11% at	0.181% at	64% at	0.1^f98% at	10^f7% at	0.1^g76% at	10^g13% at	0.1^h85% at	–	–	–	–
NC(=O)CC(c1cccc(F)c1)c1cccc(F)c1 [Compound 151, 3,3-Bis(3-fluorophenyl)propanamide]	54.9 µM	–	> 100 µM	–	–	–	–	–	–	–	–	–	–	–	–	ED50 [7]: 36.5 mg/kg; seizure threshold, i.v. Metrazol test (seizure threshold; 36.5 and 108 mg/kg i.p.): a significant increase in seizure threshold; TD50 (in vivo): 108 mg/kg
CC(C(O)c1ccc(O)cc1)N1CCC(Cc2ccccc2)CC1 (centres unmarked) [ifenprodil, reference compound]	–	significantly blocked	–	–	–	–	–	–	–	–	–	–	–	–	–	–
